Read-outs that look alike come from different tables or passages of the source.
Tests used:
[1] = target: GlunN1/GluN2A glutamate receptors (Homo sapiens (Human), UniProt Q05586+Q12879); experiment: Whole-cell patch clamp of mammalian cells (Ionworks Barracuda), positive allosteric modulation, GluN1/GluN2A; format: cell-based
Experimental: (§1) The measurements were performed using Ion Works Barracuda platform following this procedure:
(§2) Electrophysiological Procedures:
(§3) • a) Intracellular solution (mM): 50 mM CsCl, 90 mM CsF, 2 mM MgCl2, 5 mM EGTA, 10 mM HEPES. Adjust to pH 7.2 with CsOH. • b) Extracellular solution, HB-PS (composition in mM): NaCl, 137; KCl, 1.0; CaCl2), 5; HEPES, 10; Glucose, 10; pH adjusted to 7.4 with NaOH (refrigerated until use). • c) Holding potential: −70 mV, potential during agonist/PAM application: −40 mV. Recording Procedure: • a) Extracellular buffer will be loaded into the PPC plate wells (11 μL per well). Cell suspension will be pipetted into the wells (9 μL per well) of the PPC planar electrode. • b) Whole-cell recording configuration will be established via patch perforation with membrane currents recorded by on-board patch clamp amplifiers. • c) Two recordings (scans) will be performed. First, during pre-application of test article alone (duration of pre-application—[…]) and second, during test articles and agonist (EC20 L-glutamate and 30 μM glycine) co-application to detect positive modulatory effects of the test article. […] Potentiating Effect of Positive Allosteric Modulators (PAM) on the Channel
(§4) PAM concentration-response data will be fitted to an equation of the form: % Activation=% L-glutamate EC20+{(% MAX−% L-glutamate EC20)/[1+([Test]/EC50)^N]}, where [Test] will be the concentration of PAM (test article), EC50 will be the concentration of PAM producing half-maximal activation, N will be the Hill coefficient, % L-glutamate EC20 will be the percentage of the current Elicited with L-glutamate EC20, % MAX is the percentage of the current activated with the highest dose of PAM co-admitted with L-glutamate EC20 and % Activation will be the percentage of the current elicited with L-glutamate EC10-30 at each PAM concentration. The maximal amplitude of the evoked currents are measured and defined as Peak Current Amplitude (PCA).

[2] = target: GluN2B glutamate receptors (Homo sapiens (Human), UniProt Q05586+Q13224); experiment: Whole-cell patch clamp of mammalian cells (Ionworks Barracuda), positive allosteric modulation, GluN2B; format: cell-based; conditions: for Emax: read-out: Avg Emax 2B (%)
GluN2B glutamate receptors, sequence (Q13224 27-1484, other chains not shown): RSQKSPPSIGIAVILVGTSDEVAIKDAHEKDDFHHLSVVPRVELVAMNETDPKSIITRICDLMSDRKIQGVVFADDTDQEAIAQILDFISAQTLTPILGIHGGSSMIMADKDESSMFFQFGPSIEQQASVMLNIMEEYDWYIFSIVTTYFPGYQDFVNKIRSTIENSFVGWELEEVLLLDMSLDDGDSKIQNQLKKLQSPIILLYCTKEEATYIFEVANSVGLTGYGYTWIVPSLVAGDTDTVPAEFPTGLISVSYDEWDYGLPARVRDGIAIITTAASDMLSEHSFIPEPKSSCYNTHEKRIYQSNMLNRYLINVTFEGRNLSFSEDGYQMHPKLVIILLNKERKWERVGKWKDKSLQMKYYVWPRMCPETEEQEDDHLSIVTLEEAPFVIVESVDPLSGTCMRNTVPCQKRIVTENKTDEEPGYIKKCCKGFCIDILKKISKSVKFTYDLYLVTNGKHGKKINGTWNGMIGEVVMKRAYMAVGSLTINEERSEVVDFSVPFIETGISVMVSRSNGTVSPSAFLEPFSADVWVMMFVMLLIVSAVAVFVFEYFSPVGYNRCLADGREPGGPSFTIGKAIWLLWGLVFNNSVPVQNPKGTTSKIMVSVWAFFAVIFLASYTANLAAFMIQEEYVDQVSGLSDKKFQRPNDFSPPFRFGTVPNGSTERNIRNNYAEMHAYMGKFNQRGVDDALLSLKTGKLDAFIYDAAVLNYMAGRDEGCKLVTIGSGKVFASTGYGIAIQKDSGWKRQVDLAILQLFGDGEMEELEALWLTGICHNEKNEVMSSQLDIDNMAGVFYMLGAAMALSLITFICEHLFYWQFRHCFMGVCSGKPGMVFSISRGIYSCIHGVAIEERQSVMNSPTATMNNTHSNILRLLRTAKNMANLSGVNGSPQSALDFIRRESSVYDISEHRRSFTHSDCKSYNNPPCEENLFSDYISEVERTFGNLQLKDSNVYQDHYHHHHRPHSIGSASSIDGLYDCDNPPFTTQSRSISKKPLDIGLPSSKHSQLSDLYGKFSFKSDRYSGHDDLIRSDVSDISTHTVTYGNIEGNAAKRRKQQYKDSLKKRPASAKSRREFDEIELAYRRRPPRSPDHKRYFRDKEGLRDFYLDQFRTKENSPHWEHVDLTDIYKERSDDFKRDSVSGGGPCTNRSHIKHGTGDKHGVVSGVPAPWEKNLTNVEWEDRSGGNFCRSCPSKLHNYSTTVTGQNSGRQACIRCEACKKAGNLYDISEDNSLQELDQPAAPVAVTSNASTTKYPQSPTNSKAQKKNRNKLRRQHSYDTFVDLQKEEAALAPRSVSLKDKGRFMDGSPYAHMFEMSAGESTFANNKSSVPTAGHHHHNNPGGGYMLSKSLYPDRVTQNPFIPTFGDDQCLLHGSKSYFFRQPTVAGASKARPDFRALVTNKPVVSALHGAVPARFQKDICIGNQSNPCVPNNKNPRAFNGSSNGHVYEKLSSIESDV
Experimental: as §1, §2, §3, §4

[3] = HEK293 cells, % potentiation of current elicited with EC20 L-glutamate and 30 μM glycine, read-out: Avg Emax 2A (%)
[4] = HEK293 cells, co-application with EC20 L-glutamate and 30 μM glycine, 8-point concentration-response, read-out: Avg EC50 2A
[5] = % potentiation of current elicited with EC20 L-glutamate and 30 μM glycine
[6] = co-application with EC20 L-glutamate and 30 μM glycine, 8-point concentration-response, read-out: Avg EC50 2B
[7] = HEK293, read-out: Avg Emax 2A (%)

GlunN1/GluN2A glutamate receptors, sequence (Q12879 23-1464, other chains not shown): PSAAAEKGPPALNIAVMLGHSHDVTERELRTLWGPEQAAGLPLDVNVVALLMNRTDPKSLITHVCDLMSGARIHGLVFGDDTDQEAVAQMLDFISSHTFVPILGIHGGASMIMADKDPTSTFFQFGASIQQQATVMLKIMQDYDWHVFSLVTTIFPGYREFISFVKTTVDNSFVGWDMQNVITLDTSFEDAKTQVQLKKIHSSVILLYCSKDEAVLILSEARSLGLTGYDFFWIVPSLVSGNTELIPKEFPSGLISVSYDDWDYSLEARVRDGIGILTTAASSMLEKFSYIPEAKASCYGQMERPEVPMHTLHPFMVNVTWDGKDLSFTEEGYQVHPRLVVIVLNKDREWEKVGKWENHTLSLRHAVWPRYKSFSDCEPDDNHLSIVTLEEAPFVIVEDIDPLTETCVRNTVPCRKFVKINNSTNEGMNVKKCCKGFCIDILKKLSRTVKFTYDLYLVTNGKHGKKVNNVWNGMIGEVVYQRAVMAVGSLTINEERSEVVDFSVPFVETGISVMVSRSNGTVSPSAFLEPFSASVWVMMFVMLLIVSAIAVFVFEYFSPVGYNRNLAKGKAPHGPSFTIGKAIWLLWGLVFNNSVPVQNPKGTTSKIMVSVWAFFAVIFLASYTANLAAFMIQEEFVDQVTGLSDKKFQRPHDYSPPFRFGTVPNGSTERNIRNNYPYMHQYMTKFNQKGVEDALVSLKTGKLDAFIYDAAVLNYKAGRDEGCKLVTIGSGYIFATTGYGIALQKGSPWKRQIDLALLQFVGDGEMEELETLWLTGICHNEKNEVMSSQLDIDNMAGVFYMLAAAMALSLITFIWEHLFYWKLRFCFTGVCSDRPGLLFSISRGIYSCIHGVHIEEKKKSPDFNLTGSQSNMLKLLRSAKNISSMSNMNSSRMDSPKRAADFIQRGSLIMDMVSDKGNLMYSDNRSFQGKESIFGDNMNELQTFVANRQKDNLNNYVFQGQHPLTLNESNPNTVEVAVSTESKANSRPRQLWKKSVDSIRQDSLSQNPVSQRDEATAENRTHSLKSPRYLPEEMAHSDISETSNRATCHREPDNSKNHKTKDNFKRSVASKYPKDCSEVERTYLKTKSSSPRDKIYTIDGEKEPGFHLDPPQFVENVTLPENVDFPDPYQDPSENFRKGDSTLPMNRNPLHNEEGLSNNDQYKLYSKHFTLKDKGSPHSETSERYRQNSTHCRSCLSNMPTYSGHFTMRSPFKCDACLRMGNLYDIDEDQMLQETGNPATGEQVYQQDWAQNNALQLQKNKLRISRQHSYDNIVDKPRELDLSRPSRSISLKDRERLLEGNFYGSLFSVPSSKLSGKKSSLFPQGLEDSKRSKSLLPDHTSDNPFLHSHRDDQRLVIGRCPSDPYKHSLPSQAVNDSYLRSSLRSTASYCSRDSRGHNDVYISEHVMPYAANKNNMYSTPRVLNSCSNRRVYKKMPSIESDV

| Compound | EC50 [1] [nM] | EC50 [2] [nM] | Emax [1, 3] [%] | EC50 [1, 4] [nM] | Emax [2, 5] [%] | EC50 [2, 6] [nM] | Emax [1, 7] [%] | Emax [2] [%] |
| --- | --- | --- | --- | --- | --- | --- | --- | --- |
| C[C@H](CC[C@@H](O)C(F)(F)F)[C@H]1CC[C@H]2[C@@H]3CC=C4C[C@](O)(C(F)(F)F)CC[C@]4(C)[C@H]3CC[C@]12C [Compound 3149] | 69.7 | 60.7 |  |  |  |  |  |  |
| C[C@H](CC[C@@H](C)O)[C@H]1CC[C@H]2[C@@H]3CC=C4C[C@](O)(C(F)(F)F)CC[C@]4(C)[C@H]3CC[C@]12C [Compound 3266] |  |  | 82.6 | 147 | 135 | 377 |  |  |
| C[C@H](CC[C@@H](O)C(C)(C)C)[C@H]1CC[C@H]2[C@@H]3CC=C4C[C@](O)(C(F)(F)F)CC[C@]4(C)[C@H]3CC[C@]12C [Compound 3382] | 67.6 | 126 |  |  |  |  |  |  |
| C[C@H](CC[C@@]1(O)CCOC1)[C@H]1CC[C@H]2[C@@H]3CC=C4C[C@](O)(C(F)(F)F)CC[C@]4(C)[C@H]3CC[C@]12C [Compound 3495] |  |  |  |  |  |  | 107 | 146 |
| C[C@H](CC[C@H](O)C(C)(C)C)[C@H]1CC[C@H]2[C@@H]3CC=C4C[C@](O)(C(F)(F)F)CC[C@]4(C)[C@H]3CC[C@]12C [Compound 3507] | 165 | 191 |  |  |  |  |  |  |
| C[C@H](CC[C@H](O)C(C)(C)C)[C@H]1CC[C@H]2[C@@H]3CC[C@@H]4C[C@](O)(C(F)(F)F)CC[C@]4(C)[C@H]3CC[C@]12C [Compound 3634] | 423 | 404 |  |  |  |  |  |  |
| C[C@H](CC[C@@H](O)C(C)(C)C)[C@H]1CC[C@H]2[C@@H]3CC[C@@H]4C[C@](O)(C(F)(F)F)CC[C@]4(C)[C@H]3CC[C@]12C [Compound 3788] | 1320 | 1120 |  |  |  |  |  |  |
| C[C@H](CC[C@]1(O)CC[C@@H](C)CC1)[C@H]1CC[C@H]2[C@@H]3CC[C@H]4C[C@](O)(C(F)(F)F)CC[C@]4(C)[C@H]3CC[C@]12C [Compound 3886] |  |  |  |  |  |  | 106 | 164 |
| C[C@H](CCC1(O)CCCCCC1)[C@H]1CC[C@H]2[C@@H]3CC[C@H]4C[C@](O)(C(F)(F)F)CC[C@]4(C)[C@H]3CC[C@]12C [Compound 3983] | 88.1 | 248 |  |  |  |  |  |  |
| C[C@H](CCC1(O)CCCCC1)[C@H]1CC[C@H]2[C@@H]3CC[C@H]4C[C@](O)(C(F)(F)F)CC[C@]4(C)[C@H]3CC[C@]12C [Compound 4023] | 516 | 406 | 322 |  | 418 |  |  |  |
| C[C@H](CCCC1(O)CC1)[C@H]1CC[C@H]2[C@@H]3CC[C@H]4C[C@](O)(C(F)(F)F)CC[C@]4(C)[C@H]3CC[C@]12C [Compound 4115] | 91.9 | 114 |  |  |  |  |  |  |
| C[C@H](CC[C@H](O)C1CCCCC1)[C@H]1CC[C@H]2[C@@H]3CC[C@H]4C[C@](O)(C(F)(F)F)CC[C@]4(C)[C@H]3CC[C@]12C [Compound 4155] | 442 | 612 | 164 |  | 198 |  |  |  |
| C[C@H](CC[C@@H](O)C1CCCCC1)[C@H]1CC[C@H]2[C@@H]3CC[C@H]4C[C@](O)(C(F)(F)F)CC[C@]4(C)[C@H]3CC[C@]12C [Compound 4156] | > 10000 | > 10000 | 10.6 |  | 20.1 |  |  |  |
| CC(C)[C@H]1CC[C@@](O)(CC[C@@H](C)[C@H]2CC[C@H]3[C@@H]4CC[C@H]5C[C@](O)(C(F)(F)F)CC[C@]5(C)[C@H]4CC[C@]23C)CC1 [Compound 4258] | 1030 | 640 | 184 |  | 242 |  |  |  |
| CC(C)[C@H]1CC[C@](O)(CC[C@@H](C)[C@H]2CC[C@H]3[C@@H]4CC[C@H]5C[C@](O)(C(F)(F)F)CC[C@]5(C)[C@H]4CC[C@]23C)CC1 [Compound 4259] | > 10000 | > 10000 | -13.3 |  | 24.3 |  |  |  |
| C[C@H](CCC1(O)CCC(C(C)(C)C)CC1)[C@H]1CC[C@H]2[C@@H]3CC[C@H]4C[C@](O)(C(F)(F)F)CC[C@]4(C)[C@H]3CC[C@]12C (some centres unmarked) [Compound 4360] |  |  | 38.1 |  | 14.6 |  |  |  |
| CC[C@H]1CC[C@@](O)(CC[C@@H](C)[C@H]2CC[C@H]3[C@@H]4CC[C@H]5C[C@](O)(C(F)(F)F)CC[C@]5(C)[C@H]4CC[C@]23C)CC1 [Compound 4475] | 461 | 266 | 364 |  | 355 |  |  |  |
| CC[C@H]1CC[C@](O)(CC[C@@H](C)[C@H]2CC[C@H]3[C@@H]4CC[C@H]5C[C@](O)(C(F)(F)F)CC[C@]5(C)[C@H]4CC[C@]23C)CC1 [Compound 4476] | > 10000 | > 10000 | -3.3 |  | 10.4 |  |  |  |
| CO[C@H]1CC[C@@](O)(CC[C@@H](C)[C@H]2CC[C@H]3[C@@H]4CC[C@H]5C[C@](O)(C(F)(F)F)CC[C@]5(C)[C@H]4CC[C@]23C)CC1 [Compound 4555] | > 10000 | > 10000 | 22.8 |  | 31.9 |  |  |  |
| CO[C@H]1CC[C@](O)(CC[C@@H](C)[C@H]2CC[C@H]3[C@@H]4CC[C@H]5C[C@](O)(C(F)(F)F)CC[C@]5(C)[C@H]4CC[C@]23C)CC1 [Compound 4585] | 215 | 166 | 72.2 |  | 123 |  |  |  |
| COC[C@H]1CC[C@@](O)(CC[C@@H](C)[C@H]2CC[C@H]3[C@@H]4CC[C@H]5C[C@](O)(C(F)(F)F)CC[C@]5(C)[C@H]4CC[C@]23C)CC1 [Compound 4656] | 1600 | 2160 | 134 |  | 122 |  |  |  |
| COC[C@H]1CC[C@](O)(CC[C@@H](C)[C@H]2CC[C@H]3[C@@H]4CC[C@H]5C[C@](O)(C(F)(F)F)CC[C@]5(C)[C@H]4CC[C@]23C)CC1 [Compound 4657] | 422 | 130 | 74 |  | 62.9 |  |  |  |
| C[C@H](CCC1(O)CCC(C)(C)CC1)[C@H]1CC[C@H]2[C@@H]3CC=C4C[C@](O)(C(F)(F)F)CC[C@]4(C)[C@H]3CC[C@]12C [Compound 4799] | > 10000 | 760 | 36.1 |  | 32.8 |  |  |  |
| C[C@H](CCC1(O)CCC2(CC1)CC2)[C@H]1CC[C@H]2[C@@H]3CC[C@H]4C[C@](O)(C(F)(F)F)CC[C@]4(C)[C@H]3CC[C@]12C [Compound 4805] | 356 | 362 | 175 |  | 129 |  |  |  |
| CCC1(C)CCC(O)(CC[C@@H](C)[C@H]2CC[C@H]3[C@@H]4CC[C@H]5C[C@](O)(C(F)(F)F)CC[C@]5(C)[C@H]4CC[C@]23C)CC1 (some centres unmarked) [Compound 4906] |  |  | 8.8 | > 10000 | 14.8 | > 10000 |  |  |
| C[C@H](CCC1(O)CCC2(CC1)COC2)[C@H]1CC[C@H]2[C@@H]3CC[C@H]4C[C@](O)(C(F)(F)F)CC[C@]4(C)[C@H]3CC[C@]12C [Compound 5009] | > 10000 | > 10000 | 27.5 |  | 14.5 |  |  |  |
| C[C@H](CCCC(C)(C)O)[C@H]1CC[C@H]2[C@@H]3CC[C@H]4C[C@](O)(C(F)(F)F)CC[C@]4(C)[C@H]3CC[C@]12C [Compound 5116] |  |  | 185 | 102 | 214 | 130 |  |  |
| C[C@H](CCC1(O)CCC(OC(F)F)CC1)[C@H]1CC[C@H]2[C@@H]3CC[C@H]4C[C@](O)(C(F)(F)F)CC[C@]4(C)[C@H]3CC[C@]12C (some centres unmarked) [Compound 5131] |  |  |  |  |  |  | 52.9 | 39 |
| C[C@H](CCC1(O)CCC(C)(C)CC1)[C@H]1CC[C@H]2[C@@H]3CC[C@@H]4C[C@](O)(C(F)(F)F)CC[C@]4(C)[C@H]3C(=O)C[C@]12C [Compound 5294] |  |  | 32.4 |  | 13.9 |  |  |  |

From US11149054B2, “Oxysterols and methods of use thereof” (Sage Therapeutics, Inc., priority 2016, dated 2021)
